Experiments:
[1] = wn = mass fraction of the nth substance listed; details: 97.7 kPa, Liquid, w2 = 0.874; for viscosity: Concentric cylinders viscometry; for mass density: Vibrating tube method
[2] = 97.7 kPa, Liquid; for viscosity: Concentric cylinders viscometry; for mass density: Vibrating tube method
[3] = molar heat capacity at constant pressure; details: 100 kPa, Liquid, DSC

C1CNCCN1 [piperazine] + CN(CCO)CCO
[1]
Details | mass density [kg/m3] | viscosity [mPa·s]
293.15 K | 1036 | 150.46
303.15 K | 1029 | 79.46
313.15 K | 1021 | 45.07
323.15 K | 1014 | 27.24
333.15 K | 1006 | 17.41
343.15 K | 999 | 11.68
353.15 K | 991 | 8.18
363.15 K | 983 | 5.93

O [water]
Details | mass density, [2] [kg/m3] | molar heat capacity at constant pressure, [3] [J/K/mol] | viscosity, [2] [mPa·s]
293.15 K | 998 | – | 1
298.15 K | – | 74.8 | –
303.15 K | 996 | – | 0.8
308.15 K | – | 74.78 | –
313.15 K | 992 | – | 0.65
318.15 K | – | 74.93 | –
323.15 K | 988 | – | 0.55
328.15 K | – | 75.02 | –
333.15 K | 983 | – | 0.47
338.15 K | – | 75.07 | –
343.15 K | 978 | – | 0.4
348.15 K | – | 75.21 | –
353.15 K | 972 | – | 0.35
363.15 K | 965 | – | 0.31

From the NIST ThermoML archive (doi:10.1021/acs.jced.8b01174)
